These results are taken from US11745001B2, “Therapeutic bandage” (University of Connecticut, priority 2020, dated 2023).

Each structure is given as a SMILES string.

On the series, the source says: FIG. 4A illustrates a microneedle base 44 showing the hollow channel 50. FIG. 4B illustrates the microneedle base 44 coupled to the rapid-dissolving tips 40, which include tattoo ink. In one embodiment, the therapeutic bandage 10 may be producing the microneedles 26 and then coupling the microneedles 26 to the bandage matrix 30. In some embodiments, the microneedles 26 may be integrally formed with a portion of the bandage matrix 30. The microneedles are produced by forming the base 44, with the microchannel 50, and loading the base […] with the second immunomodulatory compound. The tip 40 is then produced and loaded with the first immunomodulatory compound. The tip 40 is then coupled to the base 44 to seal the microchannel […]. To test the mechanical strength of the microneedles 26, the tips 40 were loaded with insoluble tattoo ink (FIG. 4B). The microneedles 26 were then applied to cultured human skin explants using a 1 Newton application force. […] FIG. 4E illustrates a longitudinal section of explanted human skin showing spacing of microneedle deposition in the dermal layer. The kinetics of drug release were then measured using epifluorescence microscopy and two fluorescent dyes.

As to `CCN(CC)c1ccc2c(-c3ccc(S(=O)(=O)O)cc3S(=O)(=O)[O-])c3ccc(=[N+](CC)CC)cc-3oc2c1` [sulforhodamine B], the “diffusion radius compared with the tip dye” value is given as “approximately equal diffusion radius”, the “release of red fluorescence from the microneedle base” value is listed as “after about one hour” and the visibility of dye result is “barely visible”.
